Measurements as given in paper PMC8956739, “A synthetic lipopeptide targeting top-priority multidrug-resistant Gram-negative pathogens” (Nature Communications, 2022).
Converted amounts (≈) assume the structure as drawn. “And” between values parts separate entries of the source, which are not always exact repeats. Equal values may be shown once. Residues, ends and D or L forms follow the SMILES beside them.

Tests used:
[1] = tested on: P. aeruginosa ATCC 27853; test: Neutropenic mouse bloodstream infection model; assay type: in vivo; details: single IV dose 4 mg/kg; for Log10 CFU/mL blood at 4 h, Mean / Δlog10 CFU/mL blood (mean) / Log10 CFU/mL blood at 4 h, single mouse: 4 h; for Δlog10 CFU/mL blood (mean): treated minus control, mean of replicates; for Δlog10 CFU/mL blood (mean) / Log10 CFU/mL blood at 4 h, single mouse / Delta Log10 CFU/mL blood at 4 h, single mouse: 4 mg/kg; for Delta Log10 CFU/mL blood at 4 h, single mouse: treated mouse minus mean of vehicle mice
Description: The experimental methodology for the neutropenic mouse bloodstream infection model was described previously. Briefly, 7-week-old female Swiss mice (22–28 g) were rendered neutropenic by intraperitoneal administration of cyclophosphamide, 4 days (150 mg/kg) and 1 day (100 mg/kg) prior to inoculation. Bloodstream infection was established by intravenous administration of a 50 µL bolus of early log-phase bacterial suspension (4 × 10^8 CFU/mL). Lipopeptide solutions were prepared at 1 mg/mL (free base) in sterile saline. At 2 h after inoculation, mice (n = 3) were injected intravenously with lipopeptide solution at 4 mg/kg (free base) or saline control. At 0 and 4 h after administration, blood was collected, diluted serially in sterile saline, and plated on nutrient agar plates. Agar plates were incubated at 37 °C overnight for bacterial colony counting and the bacterial load in the blood (log10 CFU/mL) in each mouse was calculated. In vivo efficacy was calculated as the difference of the log10 CFU/mL blood values between the treated mice and the saline-treated mice at 4 h post dosing (Δlog10 CFU/mL blood = log10 [treated] CFU/mL blood − log10[control] CFU/mL blood).

[2] = tested on: Swiss mice, kidney; test: Nephrotoxicity in mice (kidney histopathology); assay type: in vivo, mouse; details: for Kidney histopathology (SQS Score): 72 mg/kg/d subcutaneously in six divided doses every 2 h, n = 3; for Kidney histopathology, mice with the SQS score: mouse, in vivo
Description: The experimental methodology has been previously reported by our group. Briefly, individual lipopeptide solutions were prepared in sterile saline (6 mg/mL). Swiss mice (female, 7-week-old, 22–28 g) were subcutaneously administered at 12 mg/kg in, 6 doses every 2 h to reach a total dose of 72 mg/kg (n = 3). For high-dose nephrotoxicity experiments, mice were intraperitoneally administered at 20 or 25 mg/kg, in 6 doses every 2 h to reach a total dose of 120 mg/kg (n = 6) or 150 mg/kg (n = 3). At 20 h after the last dose, the right kidney from each mouse was collected and placed in 10% buffered (pH 7.4) formalin (Sigma-Aldrich, Castle Hill, NSW, Australia). The kidneys were subjected to histological examination at the Australian Phenomics Network-Histopathology and Organ Pathology (University of Melbourne, Parkville, VIC, Australia), who was blind to the treatment groups.

[3] = tested on: A. baumannii ATCC 19606; assay type: cell-based, Acinetobacter baumannii; details: ATCC 19606
Description: (§1) MICs were determined in cation-adjusted Mueller–Hinton broth (CaMHB) by the broth micro-dilution method against ATCC strains and clinical isolates. MICs in the presence of Survanta® were determined as described above against P. aeruginosa ATCC 27853. In the 100 μL of fresh CaMHB containing polymyxins, 10% Survanta® (v/v, 2.5 mg/mL phospholipids) was added. MICs in the presence and absence of Survanta® were compared to determine the effect of binding to lung surfactant on the antibacterial activity of polymyxins.

[4] = tested on: A. baumannii FADDI-AB030; assay type: cell-based, Acinetobacter baumannii; details: FADDI-AB030
Description: as §1

[5] = tested on: A. baumannii FADDI-AB034; assay type: cell-based, Acinetobacter baumannii; details: FADDI-AB034
Description: as §1

[6] = tested on: P. aeruginosa ATCC 27853; assay type: cell-based, Pseudomonas aeruginosa
Description: as §1

[7] = tested on: P. aeruginosa FADDI-PA025; assay type: cell-based, Pseudomonas aeruginosa; details: FADDI-PA025
Description: as §1

[8] = tested on: P. aeruginosa FADDI-PA038; assay type: cell-based, Pseudomonas aeruginosa; details: FADDI-PA038
Description: as §1

[9] = tested on: K. pneumoniae FADDI-KP032; assay type: cell-based, Klebsiella pneumoniae; details: FADDI-KP032
Description: as §1

[10] = tested on: K. pneumoniae FADDI-KP065; assay type: cell-based, Klebsiella pneumoniae; details: FADDI-KP065
Description: as §1

CCCCCCCC(=O)N[C@@H](CCN)C(=O)N[C@H](C(=O)N[C@@H](CCN)C(=O)N[C@H]1CCNC(=O)[C@H]([C@@H](C)O)NC(=O)[C@H](CCN)NC(=O)[C@H](CCN)NC(=O)[C@H](CC(C)C)NC(=O)[C@@H]([C@H](C)O)NC(=O)[C@H](CCN)NC1=O)[C@@H](C)O [Lipopeptide F228] (HELM PEPTIDE1{[CCCCCCCC(=O)[*:2]].[Dab].T.[Dab].[Dab].[Dab].[dT].L.[Dab].[Dab].T}$PEPTIDE1,PEPTIDE1,5:R3-11:R2$$$V2.0)
Log10 CFU/mL blood at 4 h, Mean [1]: 4.13 Log10 CFU/mL blood
Δlog10 CFU/mL blood (mean) [1]: −3.39 log10 CFU/mL blood
Log10 CFU/mL blood at 4 h, single mouse [1]: 3.99 Log10 CFU/mL blood and 4.11 Log10 CFU/mL blood and 4.28 Log10 CFU/mL blood
Delta Log10 CFU/mL blood at 4 h, single mouse [1]: -3.52 Log10 CFU/mL blood and -3.40 Log10 CFU/mL blood and -3.24 Log10 CFU/mL blood
Kidney histopathology (SQS Score) [2]: +1 (SQS + 1 = mild damage (overall score, 1 to <15))
Kidney histopathology, mice with the SQS score [2]: 1/3
MIC A. baumannii ATCC 19606 [3]: >32 µg/mL
MIC A. baumannii FADDI-AB030 [4]: 16 µg/mL (≈ 14 µM)
MIC A. baumannii FADDI-AB034 [5]: 32 µg/mL (≈ 28 µM)
MIC P. aeruginosa ATCC 27853 ([6]; ATCC 27853): 0.25 µg/mL (≈ 0.219 µM)
MIC P. aeruginosa FADDI-PA025 [7]: 32 µg/mL (≈ 28 µM)
MIC P. aeruginosa FADDI-PA038 [8]: 32 µg/mL (≈ 28 µM)
MIC K. pneumoniae FADDI-KP032 [9]: 2 µg/mL (≈ 1.75 µM)
MIC K. pneumoniae FADDI-KP065 [10]: 16 µg/mL (≈ 14 µM)

CCCCCCCC(=O)N[C@@H](CCN)C(=O)N[C@H](C(=O)N[C@@H](CN)C(=O)N[C@H]1CCNC(=O)[C@H]([C@@H](C)O)NC(=O)[C@H](CCN)NC(=O)[C@H](CCN)NC(=O)[C@H]([C@@H](C)O)NC(=O)[C@@H](CC(C)C)NC(=O)[C@H](CCN)NC1=O)[C@@H](C)O [Lipopeptide F251] (HELM PEPTIDE1{[CCCCCCCC(=O)[*:2]].[Dab].T.[NC[C@H](N[*:1])C(=O)[*:2]].[Dab].[Dab].[dL].T.[Dab].[Dab].T}$PEPTIDE1,PEPTIDE1,5:R3-11:R2$$$V2.0)
Log10 CFU/mL blood at 4 h, Mean [1]: 5.87 Log10 CFU/mL blood
Δlog10 CFU/mL blood (mean) [1]: −1.57 log10 CFU/mL blood
Log10 CFU/mL blood at 4 h, single mouse [1]: 6.12 Log10 CFU/mL blood and 5.83 Log10 CFU/mL blood and 5.67 Log10 CFU/mL blood
Delta Log10 CFU/mL blood at 4 h, single mouse [1]: -1.33 Log10 CFU/mL blood and -1.61 Log10 CFU/mL blood and -1.78 Log10 CFU/mL blood
Kidney histopathology (SQS Score) [2]: 0 (SQS 0 = no significant change (overall score, <1))
Kidney histopathology, mice with the SQS score [2]: 3/3
MIC A. baumannii ATCC 19606 [3]: 0.5 µg/mL (≈ 0.443 µM)
MIC A. baumannii FADDI-AB030 [4]: 0.25 µg/mL (≈ 0.221 µM)
MIC A. baumannii FADDI-AB034 [5]: 0.25 µg/mL (≈ 0.221 µM)
impact of lung surfactant on MIC ([6]; 10% Survanta vs none): slightly impacted
MIC P. aeruginosa ATCC 27853 ([6]; ATCC 27853): 0.5 µg/mL (≈ 0.443 µM)
MIC, No Survanta ([6]; ATCC 27853): 0.5 µg/mL (≈ 0.443 µM)
MIC P. aeruginosa FADDI-PA025 [7]: 8 µg/mL (≈ 7.08 µM)
MIC P. aeruginosa FADDI-PA038 [8]: 0.5 µg/mL (≈ 0.443 µM)
MIC K. pneumoniae FADDI-KP032 [9]: <0.125 µg/mL
MIC K. pneumoniae FADDI-KP065 [10]: <0.125 µg/mL
